Measurements published in patent publication EP0624315B1, “Diaryl(pyridinio and isoquinolinio) boron fungicidal agents” (AMERICAN CYANAMID COMPANY, priority 1993, dated 1994).

How the values were obtained:
Venturia inaequalis = experiment: In vivo fungicidal evaluation, Apple Scab; details: 200 ppm, host plants sprayed, dried, then inoculated; also: ranges in brackets are in %
[1] = test system: Erysiphe graminis f. sp. tritici; experiment: In vivo fungicidal evaluation, Wheat Powdery Mildew; details: 200 ppm, host plants sprayed, dried, then inoculated; also: ranges in brackets are in %
Plasmopara viticola = experiment: In vivo fungicidal evaluation, Grape Downy Mildew; details: 200 ppm, host plants sprayed, dried, then inoculated; also: ranges in brackets are in %
[2] = test system: Fusarium oxysporum f. sp. cucumerinum (Fusoxc); experiment: In vitro fungicidal evaluation, mycelial growth inhibition in nutrient broth; type: cell-based; details: 25 ppm, 3-4 days at 21°C, rated visually; also: ranges in brackets are in %
Procedure: (§1) Test compounds are dissolved or suspended in acetone and dispersed into cell well plates containing a suspension of ground fungal mycelia in a nutrient broth. Assay plates are incubated for 3-4 days at 21°C. Growth inhibition is measured visually and is rated using the following scale:
(§2) Untreated controls, solvent blanks and reference standards are included in each test.
(§3) Assay fungi include the plant pathogens, Pythium ultimum (Pythul); Rhizoctonia solani (Rhizso); Fusarium oxysporum f. sp. cucumerinum (Fusoxc); and Pseudocercosporella herpotrichoides (Psdche).
(§4) When more than one test is run, the data are averaged. The compouds evaluated are reported by compound number given in Example 5.

Pythium ultimum (Pythul) = experiment: as above; type: cell-based; details: 25 ppm, 3-4 days at 21°C, rated visually; also: ranges in brackets are in %
Procedure: as §1, §2, §3, §4

[3] = test system: Rhizoctonia solani (Rhizso); experiment: as above; type: cell-based; details: 25 ppm, 3-4 days at 21°C, rated visually; also: ranges in brackets are in %
Procedure: as §1, §2, §3, §4

[4] = test system: Pseudocercosporella herpotrichoides (Psdche); experiment: as above; type: cell-based; details: 25 ppm, 3-4 days at 21°C, rated visually; also: ranges in brackets are in %
Procedure: as §1, §2, §3, §4

Cercospora beticola = experiment: In vivo fungicidal evaluation, Sugar Beet Cercospora; details: 200 ppm, host plants sprayed, dried, then inoculated; also: ranges in brackets are in %
Botrytis cinerea = experiment: In vivo fungicidal evaluation, Pepper Botrytis; details: 200 ppm, host plants sprayed, dried, then inoculated; also: ranges in brackets are in %
[5] = test system: Puccinia recondita f. sp. tritici; experiment: In vivo fungicidal evaluation, Wheat Leaf Rust; details: 200 ppm, host plants sprayed, dried, then inoculated; also: ranges in brackets are in %
Pyricularia oryzae = type: in vivo; details: 200 ppm, host plants sprayed, dried, then inoculated
Alternaria solani = experiment: In vivo fungicidal evaluation, Tomato Early Blight; details: 200 ppm, host plants sprayed, dried, then inoculated; also: ranges in brackets are in %

| Substance | AS (Apple Scab) disease control rating (Venturia inaequalis) | WPM (Wheat Powdery Mildew) disease control rating [1] | GDM (Grape Downy Mildew) disease control rating (Plasmopara viticola) | FUSOXC growth inhibition rating [2] | PHTHUL growth inhibition rating (Pythium ultimum (Pythul)) | RHIZSO growth inhibition rating [3] | PSDCHE growth inhibition rating [4] | SBC (Sugar Beet Cercospora) disease control rating (Cercospora beticola) | PB (Pepper Botrytis) disease control rating (Botrytis cinerea) | WLR (Wheat Leaf Rust) disease control rating [5] | RB (Rice Blast) disease control rating (Pyricularia oryzae) | TEB (Tomato Early Blight) disease control rating (Alternaria solani) |
| --- | --- | --- | --- | --- | --- | --- | --- | --- | --- | --- | --- | --- |
| Chloro(isoquinolinio)di-p-tolylboron [Compound 12] | 0 (0) | 0 (0) | 0 (0) | 7 (90 - 99) | 7 (90 - 99) | 7 (90 - 99) | 5 (60 - 89) | 7 (90 - 95) | 0 (0) | 0 (0) | 0 (0) | 0 (0) |
| Hydroxy(3-butylpyridinio)diphenylboron [Compound 7] | 6 (75 - 89) | 5 (60 - 74) | 0 (0) | 9 (100) | 9 (100) | 9 (100) | 0 (0) | 0 (0) | 0 (0) | 5 (60 - 74) | 6 (75 - 89) | 0 (0) |
| Hydroxy(4-isopropylpyridinio)diphenylboron [Compound 8] | 0 (0) | 0 (0) | 4 (45 - 59) | 9 (100) | 9 (100) | 7 (90 - 99) | 0 (0) | 0 (0) | 0 (0) | 0 (0) | 6 (75 - 89) | 0 (0) |
